{
  "source": "the supplement of paper PMC10307832",
  "assay_in_all_cases": "relative viability (nuclei count vs DMSO), 5 days (fraction); higher = more cells survive",
  "key": {"[1]": {"compound": "C[C@]1(c2nc3c(C(N)=O)cccc3[nH]2)CCCN1 [Veliparib] + Nc1nc2[nH]cc(CCc3ccc(C(=O)N[C@@H](CCC(=O)O)C(=O)O)cc3)c2c(=O)[nH]1 [Pemetrexed] (partner 0.2 µM)", "procedure,_shortened": "(§1)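 A single step with final 0.05% Triton X-100, 1% formaldehyde and 1 ug/ml Hoechst fixed the cells and stained nuclei 5 days after treatment. Lung cancer cell lines in 1536-well plates had been treated by pin tool the day after seeding with one drug alone or a fixed anchor-drug dose plus five library-drug doses (not always all listed) in √10 steps, and nuclei were counted on 4× images. Relative viability is the ratio of nuclei in treated wells to nuclei in vehicle wells, taken as the median of duplicate plates.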"}, "[2]": {"compound": "C[C@]1(c2nc3c(C(N)=O)cccc3[nH]2)CCCN1 [Veliparib] + COc1cc2c(Oc3ccc(NC(=O)C4(C(=O)Nc5ccc(F)cc5)CC4)cc3F)ccnc2cc1OCCCN1CCOCC1 [Foretinib] (partner 0.25 µM)", "procedure,_shortened": "as §1"}, "[3]": {"compound": "COC1=CC=C(C=C1)CN2C=CC3=C2C=C(C=C3)C(=O)NO + CS(=O)(=O)N1CCN(Cc2cc3nc(-c4cccc5[nH]ncc45)nc(N4CCOCC4)c3s2)CC1 [Pictilisib] (partner 1 µM)", "procedure,_shortened": "as §1"}, "[4]": {"compound": "C[C@]1(c2nc3c(C(N)=O)cccc3[nH]2)CCCN1 [Veliparib] + N=C(N)NC(=N)NCCc1ccccc1 [Phenformin] (partner 250 µM)", "procedure,_shortened": "as §1"}},
  "data": [
    {"cell line": "SW 1573", "values": [
      {"measurement": "relative viability", "setting": "[1]; first compound 0.06325 µM", "result": 0.721},
      {"measurement": "relative viability", "setting": "[1]; first compound 0.2 µM", "result": 0.758},
      {"measurement": "relative viability", "setting": "[1]; first compound 0.6325 µM", "result": 0.768},
      {"measurement": "relative viability", "setting": "[1]; first compound 2 µM", "result": 0.86},
      {"measurement": "relative viability", "setting": "[2]; first compound 0.02 µM", "result": 0.881},
      {"measurement": "relative viability", "setting": "[2]; first compound 0.06325 µM", "result": 0.771},
      {"measurement": "relative viability", "setting": "[2]; first compound 0.2 µM", "result": 0.99},
      {"measurement": "relative viability", "setting": "[2]; first compound 0.6325 µM", "result": 0.828},
      {"measurement": "relative viability", "setting": "[2]; first compound 2 µM", "result": 0.941},
      {"measurement": "relative viability", "setting": "[3]; first compound 0.253 µM", "result": 0.478},
      {"measurement": "relative viability", "setting": "[3]; first compound 0.8 µM", "result": 0.554},
      {"measurement": "relative viability", "setting": "[3]; first compound 2.53 µM", "result": 0.532},
      {"measurement": "relative viability", "setting": "[3]; first compound 8 µM", "result": 0.486},
      {"measurement": "relative viability", "setting": "[4]; first compound 0.06325 µM", "result": 0.32},
      {"measurement": "relative viability", "setting": "[4]; first compound 0.2 µM", "result": 0.419},
      {"measurement": "relative viability", "setting": "[4]; first compound 0.6325 µM", "result": 0.324},
      {"measurement": "relative viability", "setting": "[4]; first compound 2 µM", "result": 0.4}
    ]}
  ]
}
